Laboratory results: patent US10954549B2, “Detection and classification of an anticoagulant using a clotting assay” (Haemonetics Corporation, priority 2014, dated 2021)

How the values were obtained:
Format in all cases: biochemical, human
citrated whole blood [1] = experiment: TEG Kaolin test of blood spiked with anticoagulant; details: for R value versus control reference range: reference range about 5 to about 10 minutes; for MA values versus control: all studied concentrations; for R, K, α, and MRTG parameters, statistical significance versus control: three concentrations per drug, Example 1; for MRTG / TMRTG: Kaolin
Excerpt: (§1) The TEG clotting assay was used to determine if low, normal, and high doses of dabigatran, rivaroxaban, and apixaban could be detected in blood spiked with these compounds. Three oral anticoagulants (OAC), namely dabigatran, rivaroxaban, and apixaban, were spiked into blood obtained from 14 healthy volunteer human donors. For each OAC tested, citrated blood from three donors was spiked with three different concentrations of the active drug (i.e., the compound). The spiked blood samples and control samples spiked with diluent were tested with the TEG® 5000 Thrombelastograph® Hemostasis Analyzer (Haemonetics Corporation, Braintree, Mass., USA) using the Kaolin and RapidTEG® reagents (Haemonetics). Each sample was run in triplicate. All samples were tested with and without ecarin (purchased from Enzyme Research Laboratories, South Bend, IN). This study was IRB approved and all donors were over 18 and signed informed consent forms.
Dabigatran stock was prepared from the active dabigatran moiety (Alsachim, France) by dissolution in 0.1M HCl and further dilution in 1:1 DMSO:H20. […] Tubes of citrated blood were spiked with this dabigatran stock to create final concentrations of 500, 200, and 50 ng/mL of citrated whole blood.
Rivaroxaban stock was prepared by agitation of a 20 mg Xarelto tablet (Jannsen, Titusville, N.J.) in a 1:1 DMSO: H20 solution, which was diluted to a final concentration of 20 ng/uL rivaroxaban in 1:1 DMSO:H20. Tubes of citrated blood were spiked with this rivaroxaban stock to create final concentrations of 500, 89, and 22 ng/mL in citrated whole blood. […] Apixaban stock was prepared in a similar manner from a 2.5 mg Eliquis tablet (Bristol-Myers Squibb, New York, N.Y.), with final concentrations of 1000, 500, and 250 ng/mL in whole blood. Apixaban is approved for prevention of VTE in elective hip or knee replacement surgery (2.5 mg BID) and for prevention of stroke and systemic embolism in patients with non-valvular AF (5 mg BID) (see Bristol-Myers SP, EEIG. apixaban summary of product characteristics). […] Control samples, prepared for each tested drug, included a solvent control containing only citrated blood and the diluent used to dilute the drug stock, and an unadulterated citrate blood tube.
Testing was performed on TEG-5000 analyzers (Haemonetics Corp., Braintree, Mass., USA) using Kaolin vials, 0.2M CaCl2, RapidTEG (rTEG) vials, diluent water, and disposable clear cups and pins provided by the manufacturer (Haemonetics, Braintree, Mass.), and ecarin (Enzyme Research Laboratories, South Bend, Ind.). All testing was performed in triplicate at each dose, and allowed to continue until the MA (maximum amplitude) parameter defined. The various components of the TEG tracing are depicted in FIG. 3A. The Kaolin test generates an R parameter, which is measured in minutes, and is the time elapsed from the initiation of the test until the point where the onset of clotting provides enough resistance to produce a 2 mm amplitude reading on the TEG tracing. This parameter represents the initiation phase of coagulation related to the function of enzymatic clotting factors. The R parameter has a normal range of 5 to 10 min for kaolin. A prolonged R time indicates slower clot formation. K is a measurement of the time interval from the split point to the point where fibrin cross-linking provides enough clot resistance to produce a 20 mm amplitude reading. The α angle is the angle formed by the slope of a tangent line traced from the R to the K time and a central line measured in degrees. K time and the α angle denote the rate at which the clot strengthens, and is representative of thrombin's cleaving of the available fibrinogen into fibrin. The MA indicates the point at which clot strength reaches its maximum amplitude, measured in millimeters on the TEG tracing, and reflects the end result of maximal platelet-fibrin interaction via the GPIIb-IIIa receptors (see Khurana S et al., J Lab Clin Med. 130:401-411, 1997). […]

citrated whole blood [2] = experiment: RapidTEG (rTEG) test of blood spiked with anticoagulant; details: for TEG ACT parameter versus control group: all tested concentrations (except rivaroxaban 22 ng/mL)
Excerpt: as §1
The RapidTEG (rTEG) test incorporated both tissue factor and kaolin to generate the conventional kaolin parameters as well as the TEG-ACT parameter, which is measured in seconds. The TEG-ACT is equivalent to the Activated Clotting Time (see Chavez J. J. et al., Anesth. Analg. 99:1290-1294, 2004) and has a normal range of 86 to 118 seconds. A prolonged TEG-ACT time indicates slower clot formation. In addition, velocity curves derived from the above mentioned kaolin and rTEG tests were plotted using TEG software. These curves represent the speed of clot propagation (MRTG, Maximum Rate of Thrombus Generation; and TMRTG, Time to Maximum Rate of Thrombus Generation) (see FIG. 3B).
For the RapidTEG (rTEG) test, the reagent was reconstituted with 20 μL diluent water, and allowed to stand for 5 minutes per manufacturer instructions. Ten μL of this reconstituted reagent was added to the TEG cup with 20 μl 0.2M CaCl2 for recalcification.
340 μL of the citrated blood sample was added to the cup with these two reagents, and the contents of the cup were mixed 3 times by drawing the contents of the cup up into the pipette and redispensing it into the cup. The test was started immediately after mixing and allowed to run until the MA parameter had defined. The rTEG with ecarin test was performed as the rTEG test above, using 20 μL of an ecarin/CaCl2 solution (0.16M CaCl2; 19EU/mL ecarin).

[3] = tested on: blood from healthy volunteers; experiment: Thromboelastography R time of spiked blood in the presence of the ecarin reagent
Procedure: Blood from healthy volunteers known not to be taking any oral anticoagulant and without any other significant health issues are analyzed using the FXa or the Ecarin reagent in a TEG® hemostasis analyzer.
The ecarin reagent is used to classify the type of anticoagulant. The R-time from the Ecarin assay is used to differentiate between the two available classes (Direct thrombin inhibitors and anti-Xa inhibitors). This ecarin reagent may be used in combination with the results from the FXa reagent to make a decision. A reference range will be generated from a sample healthy volunteer population (not on any drug) for this reagent.
The R-time generated from multiple donors was used to construct a reference range. Blood was spiked with either direct thrombin inhibitors or anti-Xa(s) at different concentrations and analyzed using the FXa reagent or the Ecarin reagent. The drug concentrations chosen represent the published therapeutic ranges for these two classes of drugs. This assay was repeated in multiple donors to account for possible donor variations.
The R time (in minutes) was compared to the R time obtained from donor blood with no oral anticoagulant (who is known not to be administered with an anticoagulant) treated with the ecarin reagent and measured using thromboelastography.
The R time (in minutes) was compared to the R time obtained from donor blood with no oral anticoagulant (i.e., taken from a patient who is known not to be administered with an anticoagulant) treated with the ecarin reagent and measured using thromboelastography.

[4] = blood spiked with 50 ng/ml dabigatran
[5] = blood spiked with 200 ng/ml dabigatran
[6] = blood spiked with 500 ng/ml dabigatran

## O=C(NC[C@H]1CN(c2ccc(N3CCOCC3=O)cc2)C(=O)O1)c1ccc(Cl)s1 [rivaroxaban, Rivaroxaban]
Citrated whole blood [1]; 500 ng/ml (highest dosage)
  R value versus control reference range: outside of the normal (i.e., control) reference range
Citrated whole blood [1]
  MA values versus control: did not change
  R, K, α, and MRTG parameters, statistical significance versus control: only achieved statistical significance for the higher concentrations
Citrated whole blood [1]; highest concentration tested
  R time versus non-spiked blood sample: significantly higher
Citrated whole blood [1]; lower two doses (22 and 89 ng/ml)
  R value versus control reference range: within the control reference range
Citrated whole blood [2]
  K, α and MRTG parameters versus control or between studied concentrations: did not show any statistical difference
  TEG ACT parameter, distinguishing between concentrations: good dose response curve
  TMRTG parameter sensitivity to presence of drug: sensitive to the presence
  TEG ACT parameter versus control group: significantly different
Citrated whole blood [2]; all studied concentrations
  MA values versus control: did not change
Citrated whole blood [2]; medium and higher concentrations
  ACT time versus non-spiked blood sample: significantly higher
[3]; 50-350 ng/ml, ecarin
  R time versus reference range of approximately 1 to 4.1 minutes: within the reference range

## dabigatran
Citrated whole blood [1]; 50 ng/ml (lowest dosage)
  R value versus control reference range: outside of the normal (i.e., control) reference range
Citrated whole blood [1]; 50, 200, 500 ng/ml
  R value, dose dependence: increases the R value of the tested blood components in a dose dependent manner
Citrated whole blood [1]; 500, 200, 50 ng/mL
  R, α, and TMRTG parameters between concentrations: significantly different between all concentrations
Citrated whole blood [1]; all doses
  R time versus non-spiked blood sample: significantly higher
Citrated whole blood [1]
  MA values versus control: did not change
  R, K, α, and MRTG parameters, statistical significance versus control: able to detect the presence of all tested concentrations
Citrated whole blood [1]; [4]
  MRTG: 13 mm/min
  TMRTG: 13 min
Citrated whole blood [1]; [5]
  MRTG: 12 mm/min
  TMRTG: 18 min
Citrated whole blood [1]; [6]
  MRTG: 7 mm/min
  TMRTG: 22 min
Citrated whole blood [2]
  TEG ACT parameter, distinguishing between concentrations: good dose response curve
  TMRTG parameter sensitivity to presence of drug: sensitive to the presence
  TEG ACT parameter versus control group: significantly different
Citrated whole blood [2]; 200 ng/mL and 50 ng/mL
  K parameter versus control: statistically different from control
Citrated whole blood [2]; 500 ng/mL
  K parameter versus control: not for the concentration of 500 ng/mL
Citrated whole blood [2]; 500 ng/mL and 50 ng/mL
  α parameter versus control: statistically different from control
Citrated whole blood [2]; 500 ng/mL, still within normal range
  MA values versus control group: significantly different from the control group
Citrated whole blood [2]; 500, 200, 50 ng/mL
  MRTG parameter sensitivity: sensitive to the two lowest concentrations
Citrated whole blood [2]; 500 vs 200 ng/mL, 200 vs 50 ng/mL
  TMRTG parameter between concentrations: able to differentiate between concentrations
Citrated whole blood [2]; 500 vs 200 ng/mL, 500 vs 50 ng/mL
  K and α parameters, highest concentration versus other concentrations: able to differentiate
Citrated whole blood [2]; all concentrations
  ACT time versus non-spiked blood sample: significantly higher
[3]; 50 ng/ml, donor 126, ecarin reagent
  R time versus untreated R time of unspiked donor blood: two times longer
[3]; 50 ng/ml, donors 117, 127, and 146, ecarin
  R time relative to the reference range of 3.1 minutes: at least 1.25 times
[3]; 150 ng/ml, all four donors, ecarin
  R time relative to the collective reference range of 3.1 minutes: at least 1.25 times
